Results on 3 molecules are retold here after patent US9783505B2, “Substituted diaminopyrimidyl compounds, compositions thereof, and methods of treatment therewith” (Signal Pharmaceuticals, LLC, priority 2013, dated 2017).

Experiment [1] deals with T1, His-PKC-theta (Homo sapiens, UniProt Q04759).
T1 construct: His; purchased Invitrogen
Put plainly: PKC-theta Assay (384-well time resolved fluorescence, IMAP TR-FRET). Format: biochemical. The conditions noted are these: read-out: Act. Level (IC50 in the PKC-theta Assay). In short, it runs like this: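 Enzyme at 142 pM phosphorylated 200 nM Fam-S6 peptide with 10 μM ATP in 50 mM HEPES pH 7.6, 10 mM MgCl2, 1 mM DTT for 2 h at room temperature. Product was detected after overnight incubation with IMAP binding reagent and Tb donor by time-resolved FRET.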
Background: In TR-FRET formats the signal depends on donor and acceptor labels being close together.

Experiment [2] addresses T2, PKC delta (Homo sapiens, UniProt Q05655).
T2 construct: purchased Invitrogen
Put plainly: PKC delta Assay (384-well time resolved fluorescence, IMAP TR-FRET). The experiment is classed as biochemical. The conditions noted are these: selectivity for PKC-theta over PKC-delta. In a few lines:
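Phosphorylation of a Fam-labeled S6-derived peptide (200 nM) at 10 μM ATP by 1.5 nM kinase ran 2 hours at room temperature in HEPES pH 7.6 buffer containing MgCl2, DTT, Triton X-100, BSA and EDTA. Detection used IMAP progressive binding with Tb donor TR-FRET after overnight incubation.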

T1 sequence (Q04759 whole entry): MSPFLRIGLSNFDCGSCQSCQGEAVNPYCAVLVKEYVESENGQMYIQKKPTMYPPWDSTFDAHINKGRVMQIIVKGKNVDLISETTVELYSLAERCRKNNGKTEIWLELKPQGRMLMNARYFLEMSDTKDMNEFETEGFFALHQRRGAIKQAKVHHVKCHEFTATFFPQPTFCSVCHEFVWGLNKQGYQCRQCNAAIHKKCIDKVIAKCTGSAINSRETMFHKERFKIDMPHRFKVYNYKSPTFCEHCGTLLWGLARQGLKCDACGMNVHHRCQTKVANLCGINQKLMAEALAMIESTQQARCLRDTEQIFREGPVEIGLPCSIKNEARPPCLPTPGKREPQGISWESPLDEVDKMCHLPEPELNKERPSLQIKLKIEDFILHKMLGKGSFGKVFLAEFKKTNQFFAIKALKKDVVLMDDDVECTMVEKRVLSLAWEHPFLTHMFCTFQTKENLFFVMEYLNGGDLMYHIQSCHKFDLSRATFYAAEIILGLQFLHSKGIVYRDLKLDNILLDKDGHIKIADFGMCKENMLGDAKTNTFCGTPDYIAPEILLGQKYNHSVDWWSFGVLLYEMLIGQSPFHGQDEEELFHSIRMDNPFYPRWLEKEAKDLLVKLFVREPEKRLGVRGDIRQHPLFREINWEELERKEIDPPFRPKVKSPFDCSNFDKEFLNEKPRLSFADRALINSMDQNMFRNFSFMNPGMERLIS
T2 sequence (Q05655 whole entry): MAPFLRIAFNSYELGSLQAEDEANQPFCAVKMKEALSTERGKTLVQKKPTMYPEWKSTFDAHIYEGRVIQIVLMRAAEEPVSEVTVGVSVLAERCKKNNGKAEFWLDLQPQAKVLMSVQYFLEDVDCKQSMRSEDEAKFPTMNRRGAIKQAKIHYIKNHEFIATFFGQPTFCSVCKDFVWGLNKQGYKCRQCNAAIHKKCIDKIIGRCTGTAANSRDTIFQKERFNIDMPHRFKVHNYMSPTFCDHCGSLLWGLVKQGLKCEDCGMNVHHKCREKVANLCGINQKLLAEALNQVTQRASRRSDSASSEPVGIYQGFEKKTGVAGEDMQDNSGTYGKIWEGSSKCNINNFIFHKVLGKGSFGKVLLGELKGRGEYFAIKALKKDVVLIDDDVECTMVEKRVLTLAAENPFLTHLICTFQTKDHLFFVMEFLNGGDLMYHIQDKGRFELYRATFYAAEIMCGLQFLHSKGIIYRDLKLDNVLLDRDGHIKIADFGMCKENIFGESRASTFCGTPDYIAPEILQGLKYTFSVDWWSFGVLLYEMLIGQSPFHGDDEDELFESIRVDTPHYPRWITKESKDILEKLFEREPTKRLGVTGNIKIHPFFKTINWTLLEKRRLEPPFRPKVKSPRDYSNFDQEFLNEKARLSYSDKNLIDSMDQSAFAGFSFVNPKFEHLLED

Take `Cc1cccc(CCNc2ncc(C#N)c(N[C@@H]3CC[C@H](O)C(C)(C)C3)n2)n1` [Cmpd 250]: in experiment [1], the IC50 lay within 800 to 2000 nM. Also, the “Sel. Level (ratio of IC50 PKC-delta/IC50 PKC-theta)” value in experiment [2] was “G (selectivity between 5- and 20-fold (selectivity level G))”.

With `CC1(C)C[C@H](Nc2nc(NCCn3ccc(-c4ccccc4)n3)ncc2C#N)CC[C@@H]1O` [Cmpd 209], in experiment [1], the IC50 lay in the range of 2000 to 10000 nM. Besides, in experiment [2], the “Sel. Level (ratio of IC50 PKC-delta/IC50 PKC-theta)” value is recorded as “H (selectivity level of 5-fold or less (selectivity level H))”.

As for `CC1(C)[C@H](O)CCC[C@@H]1Nc1nc(NCCC2C(=O)Nc3ccc(F)cc32)ncc1C#N` (stereo partly drawn) [Cmpd 315], the IC50 in experiment [1] is 100 to 800 nM. The “Sel. Level (ratio of IC50 PKC-delta/IC50 PKC-theta)” value in experiment [2] was “G (selectivity between 5- and 20-fold (selectivity level G))”.

Broadly, the IC50 is the concentration that gives 50% inhibition.
